Experiments:
Plasmodium falciparum = experiment: Antimalarial activity against Plasmodium falciparum 3D7 infected in RBC cells assessed as inhibition of parasite growth incubated for 48 hrs by [3H]hypoxanthine incorporation assay; type: functional, organism-based
[1] = biological target: T1, IMP-specific 5'-nucleotidase 1 (Plasmodium falciparum (isolate 3D7), UniProt A0A144A134); experiment: Binding affinity to recombinant Plasmodium falciparum 3D7 ISN1 assessed as dissociation constant by thermophoresis analysis
T1 sequence (A0A144A134 whole entry): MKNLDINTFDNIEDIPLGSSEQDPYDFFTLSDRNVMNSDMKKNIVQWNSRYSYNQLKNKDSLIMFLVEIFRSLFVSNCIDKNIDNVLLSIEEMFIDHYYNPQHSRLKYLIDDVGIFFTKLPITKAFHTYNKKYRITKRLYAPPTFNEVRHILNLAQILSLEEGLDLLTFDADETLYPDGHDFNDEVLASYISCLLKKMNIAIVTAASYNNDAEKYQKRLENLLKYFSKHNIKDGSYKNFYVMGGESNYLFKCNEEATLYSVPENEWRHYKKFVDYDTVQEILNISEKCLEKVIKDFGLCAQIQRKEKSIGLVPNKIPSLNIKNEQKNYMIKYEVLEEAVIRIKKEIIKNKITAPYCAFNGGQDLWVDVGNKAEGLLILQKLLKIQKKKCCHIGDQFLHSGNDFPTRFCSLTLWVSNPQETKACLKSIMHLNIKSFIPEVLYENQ

[2] = biological target: T2, IMP-specific 5'-nucleotidase 1 (Plasmodium falciparum (isolate 3D7)) (UniProt A0A144A134); experiment: Binding affinity to recombinant Plasmodium falciparum 3D7 ISN1 assessed as change in melting temperature at 1 uM by differential scanning fluorimetry method
T2 sequence (whole entry): T1 sequence (A0A144A134 whole entry)

[3] = biological target: T2, IMP-specific 5'-nucleotidase 1 (Plasmodium falciparum (isolate 3D7)); experiment: Binding affinity to recombinant Plasmodium falciparum 3D7 ISN1 assessed as change in melting temperature at 10 uM by differential scanning fluorimetry method
[4] = biological target: T2, IMP-specific 5'-nucleotidase 1 (Plasmodium falciparum (isolate 3D7)); experiment: Binding affinity to recombinant Plasmodium falciparum 3D7 ISN1 assessed as change in melting temperature at 100 uM by differential scanning fluorimetry method
[5] = Plasmodium falciparum, 3D7, Erythrocyte

Row | SMILES | IC50 (Plasmodium falciparum; [5]) [µM] | also measured
1 | Nc1nc2c(ncn2[C@H]2CC[C@@](O)(/C=C/P(=O)(O)O)C2)c(=O)[nH]1 (racemic) | 50 | –
2 | COc1nc(N)c2ncn([C@H]3CC[C@@](O)(CP(=O)(O)O)C3)c2n1 (racemic) | 2.2 | –
3 | O=P(O)(O)C[C@]1(O)CC[C@H](n2cnc3c(NCc4ccccc4)nc(Cl)nc32)C1 (racemic) | 68.3 | –
4 | Nc1nc2c(ncn2[C@H]2CC[C@@](O)(CP(=O)(O)O)C2)c(=O)[nH]1 (racemic) [listing 1 of 2 here] | – | Kd [1]: 24.1 µM; IC50 (Plasmodium falciparum; rbc): 4.4 µM
5 | Nc1nc2c(ncn2[C@H]2C=C[C@@](O)(CP(=O)(O)O)C2)c(=O)[nH]1 (racemic) | 1 | ΔTm [2]: -0.9 °C; ΔTm [3]: 1.1 °C; ΔTm [4]: 4.1 °C; Kd [1]: 19.5 µM
6 | Nc1nc(N)c2ncn([C@H]3CC[C@@](O)(CP(=O)(O)O)C3)c2n1 (racemic) | 8.8 | –
7 | O=P(O)(O)C[C@]1(O)CC[C@H](n2cnc3c(NCc4ccccc4)nc(NCc4ccccc4)nc32)C1 (racemic) | 41 | –
8 | COc1nc(Cl)nc2c1ncn2[C@H]1CC[C@@](O)(CP(=O)(O)O)C1 (racemic) | > 100 | –
9 | COC1NC(N)=Nc2c1ncn2[C@H]1CC[C@@](O)(CCP(=O)(O)O)C1 (mixture of isomers) | 10.2 | –
10 | Nc1nc2c(ncn2[C@H]2CC[C@@](O)(CP(=O)(O)O)C2)c(=O)[nH]1 (racemic) [listing 2 of 2 here] | – | ΔTm [2]: -2 °C; ΔTm [3]: -4.5 °C; ΔTm [4]: -5.2 °C
11 | Nc1nc2c(ncn2[C@H]2CC[C@](O)(CP(=O)(O)O)C2)c(=O)[nH]1 | 42 | –
12 | Nc1nc2c(ncn2[C@@H]2CC[C@@](O)(CP(=O)(O)O)C2)c(=O)[nH]1 | > 100 | –
13 | Nc1ncnc2c1ncn2[C@@H]1CC(CP(=O)(O)O)=C[C@H]1O (racemic) | > 100 | –
14 | Nc1nc2c(ncn2[C@H]2CC[C@@](O)(CCP(=O)(O)O)C2)c(=O)[nH]1 (racemic) | 7 | –
15 | Nc1nc(NCc2ccccc2)c2ncn([C@H]3CC[C@@](O)(CP(=O)(O)O)C3)c2n1 (racemic) | 79 | –
16 | Nc1ncnc2c1ncn2[C@H]1CC[C@@](O)(/C=C/P(=O)(O)O)C1 (racemic) | > 100 | –
17 | Nc1ncnc2c1ncn2[C@H]1CC[C@@](O)(CP(=O)(O)O)C1 | 14.7 | –
18 | Nc1nc2c(ncn2[C@@H]2CC(CP(=O)(O)O)=C[C@H]2O)c(=O)[nH]1 (racemic) | > 100 | –
19 | Nc1nc2c(ncn2[C@H]2CC[C@@](O)(CP(=O)(O)O)C2)c(=O)[nH]1 | – | IC50 (Plasmodium falciparum; rbc): 44 µM
20 | Nc1nc2c(ncn2[C@@H]2CC[C@](O)(CP(=O)(O)O)C2)c(=O)[nH]1 | 1.3 | –

Reference: ChEMBL document CHEMBL5625168, “Purine containing carbonucleoside phosphonate analogues as novel chemotype for Plasmodium falciparum Inhibition” (Eur J Med Chem, 2023)
